Experimental data: the supplement of paper PMC10307832

Legend:
Assay in all cases: relative viability (nuclei count vs DMSO), 5 days (fraction); higher = more cells survive
EHT 1864 + Bortezomib = compound: C1COCCN1CC2=CC(=O)C(=CO2)OCCCCCSC3=C4C=CC(=CC4=NC=C3)C(F)(F)F [EHT 1864] + CC(C)C[C@H](NC(=O)[C@H](Cc1ccccc1)NC(=O)c1cnccn1)B(O)O [Bortezomib] (partner 0.002 µM)
Summary of the method: (§1)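 Relative viability divides the nuclei count in treated wells by that in vehicle wells. Lung cancer cell lines were seeded in 1536-well plates, dosed by pin tool the next day, and fixed and stained after 5 days in one step with final 0.05% Triton X-100, 1% formaldehyde and 1 ug/ml Hoechst. Dosing was a single drug or a fixed anchor-drug dose plus five library-drug doses (not always all listed) in √10 steps, and values are medians of duplicate plates imaged at 4×.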

EHT 1864 + Trametinib = compound: C1COCCN1CC2=CC(=O)C(=CO2)OCCCCCSC3=C4C=CC(=CC4=NC=C3)C(F)(F)F [EHT 1864] + CC(=O)Nc1cccc(-n2c(=O)n(C3CC3)c(=O)c3c(Nc4ccc(I)cc4F)n(C)c(=O)c(C)c32)c1 [Trametinib] (partner 0.02 µM)
Summary of the method: as §1

EHT 1864 + Olaparib = compound: C1COCCN1CC2=CC(=O)C(=CO2)OCCCCCSC3=C4C=CC(=CC4=NC=C3)C(F)(F)F [EHT 1864] + O=C(c1cc(Cc2n[nH]c(=O)c3ccccc23)ccc1F)N1CCN(C(=O)C2CC2)CC1 [Olaparib] (partner 8 µM)
Summary of the method: as §1

EHT 1864 + Pictilisib = compound: C1COCCN1CC2=CC(=O)C(=CO2)OCCCCCSC3=C4C=CC(=CC4=NC=C3)C(F)(F)F [EHT 1864] + CS(=O)(=O)N1CCN(Cc2cc3nc(-c4cccc5[nH]ncc45)nc(N4CCOCC4)c3s2)CC1 [Pictilisib] (partner 1 µM)
Summary of the method: as §1

Cell Line | relative viability (EHT 1864 + Bortezomib; first compound 0.04 µM) | relative viability (EHT 1864 + Bortezomib; first compound 0.1265 µM) | relative viability (EHT 1864 + Bortezomib; first compound 0.4 µM) | relative viability (EHT 1864 + Bortezomib; first compound 1.265 µM) | relative viability (EHT 1864 + Bortezomib; first compound 4 µM) | relative viability (EHT 1864 + Trametinib; first compound 0.04 µM) | relative viability (EHT 1864 + Trametinib; first compound 0.1265 µM) | relative viability (EHT 1864 + Trametinib; first compound 0.4 µM) | relative viability (EHT 1864 + Trametinib; first compound 1.265 µM) | relative viability (EHT 1864 + Trametinib; first compound 4 µM) | relative viability (EHT 1864 + Olaparib; first compound 0.04 µM) | relative viability (EHT 1864 + Olaparib; first compound 0.1265 µM) | relative viability (EHT 1864 + Olaparib; first compound 0.4 µM) | relative viability (EHT 1864 + Olaparib; first compound 1.265 µM) | relative viability (EHT 1864 + Olaparib; first compound 4 µM) | relative viability (EHT 1864 + Pictilisib; first compound 0.04 µM) | relative viability (EHT 1864 + Pictilisib; first compound 0.1265 µM) | relative viability (EHT 1864 + Pictilisib; first compound 0.4 µM) | relative viability (EHT 1864 + Pictilisib; first compound 4 µM) | relative viability (EHT 1864 + Pictilisib; first compound 1.265 µM)
NCI-H2405 | 1.05 | 0.945 | 0.84 | 0.76 | 1.02 | 0.688 | 0.587 | 0.744 | 0.644 | 0.612 | 0.895 | 0.815 | 0.912 | 0.788 | 0.853 | 0.447 | 0.398 | 0.456 | 0.439 | 
NCI-H3122 | 1.03 | 0.973 | 0.96 | 0.99 | 0.965 | 0.219 | 0.288 | 0.248 | 0.202 | 0.219 | 0.556 | 0.58 | 0.627 | 0.596 | 0.612 | 0.564 | 0.428 | 0.583 | 0.675 | 0.617
PC-3 [JPC-3] | 0.83 | 0.737 | 0.895 | 0.853 | 0.763 | 0.641 | 0.649 | 0.763 | 0.727 | 0.695 | 1.15 | 1.04 | 1.14 | 1.03 | 1.05 | 0.816 | 0.577 | 0.853 | 0.657 | 0.928
PC-14 | 0.977 | 0.86 | 0.877 | 0.837 | 0.778 | 0.741 | 0.672 | 0.796 | 0.68 | 0.88 | 0.264 | 0.36 | 0.266 | 0.331 | 0.265 | 0.664 | 0.59 | 0.686 | 0.582 | 0.637
RERF-LC-KJ | 1.05 | 0.948 | 1.04 | 0.951 | 1.15 | 0.896 | 0.868 | 0.866 | 0.826 | 0.832 | 0.902 | 0.86 | 0.849 | 0.913 | 0.76 | 0.617 | 0.521 | 0.459 | 0.479 | 0.491
SK-LU-1 | 1.22 |  | 1.37 | 1.37 | 1.07 | 0.594 | 0.516 | 0.477 | 0.378 | 0.464 | 0.464 | 0.515 | 0.471 | 0.451 | 0.447 | 0.619 | 0.519 | 0.619 | 0.583 | 0.542
SW 1573 | 1.09 | 0.923 | 1.01 | 0.975 | 0.674 | 0.622 |  | 0.437 | 0.398 | 0.444 | 0.499 | 0.515 | 0.451 | 0.472 | 0.423 | 0.525 | 0.364 | 0.462 | 0.511 | 0.521
UMC-11 | 0.675 | 0.521 | 0.719 | 0.255 | 0.547 | 0.727 | 0.496 | 0.692 | 0.74 | 0.967 | 0.379 | 0.383 | 0.426 | 0.383 | 0.356 | 0.829 | 0.591 | 0.903 | 0.883 | 0.63
